Marks after values point to notes of the source that are not given here.
Key:
MV-4-11 cells [1] = assay: MV-4-11 AML xenograft in mice (Example 7); format: in vivo, BALB-cA nude mice; settings: D0-20; for Complete remission: number of mice, N 6
Description: Mice body weights and tumor sizes were measured twice a week. The tumor volume, T/C and TGI (Tumor growth inhibition=(average tumor volume in vehicle group-average tumor volume in administration group)/average tumor volume in vehicle group ×100%) were calculated. Mice were sacrificed on Day 21.

[2] = test system: S180 murine sarcoma cancer cells; assay: S180 sarcoma growth in mice; settings: 30 mg/kg I.P., D1-7
Description: On Day 8, the mice were weighed and sacrificed, and the tumors were collected and weighed.
Tumor growth inhibition (TGI) was calculated by the following formula. Tumor growth inhibition=(average tumor weight in vehicle group-average tumor weight in administration group)/average tumor weight in vehicle group×100%

[3] = test system: Colon26 murine colon cancer cells; assay: Colon26 colon cancer growth in mice; format: in vivo, F1 mice; settings: for TGI / Tumor weight: Day 8
Description: F1 mice, 18-22 g, purchased from Shanghai Bi-Kai Laboratory Animal Co., Ltd, were subcutaneously inoculated with Colon26 murine colon cancer cells (from Cell Bank, Chinese Academy of Sciences) at the right axilla. […] Tumor growth inhibition (TGI) was calculated.

[4] = test system: SGC-7901 human gastric cancer cells; assay: SGC-7901 gastric cancer xenograft in mice; settings: 5 mg/kg I.P., D0, 6
Description: Mice body weights and tumor sizes were measured 2 to 3 times a week. The tumor volume (V) was calculated as (length× width^2)/2. T/C (%) was calculated as (T-T0)/(C-C0)×100, wherein T and C represented the tumor volumes in the administration group and the vehicle group respectively at the end of the experiment, while T0 and C0 represented the tumor volumes in the administration group and the vehicle group respectively at the beginning of the experiment. And RTV was calculated as (Tumor volume at Day N/Tumor volume at Day 0).
BALB/cA-nude mice, 5-6 weeks old, purchased from Shanghai SLAC Laboratory Animal Co., Ltd, were subcutaneously inoculated with SGC-7901 human gastric cancer cells (from Cell Bank, Chinese Academy of Sciences).
(§7) Mice body weights and tumor sizes were measured 2 to 3 times a week. The tumor volume, T/C and RTV were calculated as described above. Mice were sacrificed on Day 18.

[5] = test system: A549 human non-small cell lung cancer cells; assay: A549 non-small cell lung cancer xenograft in mice; settings: 5 mg/kg I.P., D0, 3
Description: Mice body weights and tumor sizes were measured 2 to 3 times a week. The tumor volume (V) was calculated as (length× width^2)/2. T/C (%) was calculated as (T-T0)/(C-C0)×100, wherein T and C represented the tumor volumes in the administration group and the vehicle group respectively at the end of the experiment, while T0 and C0 represented the tumor volumes in the administration group and the vehicle group respectively at the beginning of the experiment. And RTV was calculated as (Tumor volume at Day N/Tumor volume at Day 0). Mice were sacrificed on Day-14.
BALB/cA-nude mice, 5-6 weeks old, purchased from Shanghai SLAC Laboratory Animal Co., Ltd, were subcutaneously inoculated with A549 human non-small cell lung cancer cells (from ATCC).
as §7

MV-4-11 cells [6] = assay: MV-4-11 AML xenograft in mice, combination with daunorubicin (Example 8); format: in vivo, BALB-cA nude mice; settings: 2 mg/kg I.V., D0-10
Description: Mice body weights and tumor sizes were measured twice a week. The tumor volume, T/C and TGI (Tumor growth inhibition=(average tumor volume in vehicle group-average tumor volume in administration group)/average tumor volume in vehicle group ×100%) were calculated. Mice were sacrificed on Day 21. Female BALB-cA nude mice, 6-7 weeks old, purchased from Shanghai Ling-chang Biotech Co., Ltd, were subcutaneously inoculated with MV-4-11 cells (from ATCC). […] Mice body weights and tumor sizes were measured twice a week. The tumor volume, T/C and tumor volume based TGI were calculated as described above. Mice were sacrificed on Day 11.

H69 = assay: Tumor cell death by MTT, H69; format: cell-based, human; settings: 10 μM
Description: (§1) The in vitro inhibitory effect of Compound A alone or in combination with a PARP inhibitor on tumor cell growth was tested using human small cell lung cancer (SCLC) cell lines, including H69 (ATCC® HTB-119™), H526 (ATCC® CRL-5811™) and H446 (TCHu196, National Collection of Authenticated Cell Cultures).
(§2) Briefly, the cells were seeded into a 96-well dish with RPMI-1640 (10-040-CV, Coming cellgro) containing 10% fetal bovine serum (10270-106, GIBCO), 1% penicillin and 1% streptomycin (BaSalMedia, S110JV), at an initial density of 3×10^3 cells per well ([…]), and cultured at a 37° C., 5% CO2 humidified incubator for 24 hours. Then, the culture media were added with Compound A (final concentration at 20 nM), olaparib (APEXBIO, A4154, a PARP inhibitor, final concentration at 10 μM), Compound A + olaparib (final concentrations at20 nM and 10 μM), or PBS (vehicle), respectively, and the cells were cultured for 48 hours. Then, cell viability was determined by MTT. The test was done in triplicate.
(§3) Cell death rate was calculated by the following formula.
(§4) Cell death rate=[1−(ODtest-ODvehicle)]×100%
(§5) Cell death rates were analyzed using student's t-test, and group differences were deemed statistically significant when the p-value was lower than 0.05. Zheng-Jun Jin's Q value was calculated using the formula Q=EA+B/(EA+EB-EA×EB) to assess the combined effect of Compound A and the PARP inhibitor, wherein EA+B, EA, and EB referred to the cell death rates caused by the combined treatment, Compound A treatment and PARP inhibitor treatment, respectively. A Q value higher than 1.15 meant a synergistic […] effect.
(§6) Another PARP inhibitor, rucaparib (APEXBIO, A4156), was tested alone or with Compound A for inhibitory effect on tumor cell growth, following the protocol of Example 9.

H526 = assay: Tumor cell death by MTT, H526; format: cell-based, human; settings: 10 μM
Description: as §1, §2, §3, §4, §5, §6

H446 = assay: Tumor cell death by MTT, H446; format: cell-based, human; settings: 10 μM
Description: as §1, §2, §3, §4, §5, §6

[7] = test system: Ls-174t human colon cancer cells; assay: Ls-174t colon cancer xenograft in mice; format: in vivo, BALB/cA-nude mice; settings: 153 mg/kg I.P., D0-4, 7-11
Description: Mice were sacrificed on Day-14.

With `CC[C@H](Nc1ncnc2[nH]cnc12)c1nc2cccc(F)c2c(=O)n1-c1ccccc1` [CAL 101, reference compound] the “T/C (%) D21” value (MV-4-11 cells [1]; 90 mg/kg P.O.) was 50%, the “TGI (%) D21” value (MV-4-11 cells [1]; 90 mg/kg P.O.) was 50% and the “Tumor volume D0” value (MV-4-11 cells [1]; 90 mg/kg P.O.) was 79.6 ± 3.1 mm^3. For the same compound, the “Tumor volume D21” value (MV-4-11 cells [1]; 90 mg/kg P.O.) was 442.2 ± 93.8 mm^3, the Complete remission (MV-4-11 cells [1]; 90 mg/kg P.O.) was 0 and the “T/C (%) D21” value (MV-4-11 cells [1]; 180 mg/kg P.O.) was 39%. The “TGI (%) D21” value (MV-4-11 cells [1]; 180 mg/kg P.O.) was 61%, the “Tumor volume D0” value (MV-4-11 cells [1]; 180 mg/kg P.O.) was 78.9 ± 1.9 mm^3 and the “Tumor volume D21” value (MV-4-11 cells [1]; 180 mg/kg P.O.) was 361.7 ± 93.8 mm^3. It also gave a Complete remission (MV-4-11 cells [1]; 180 mg/kg P.O.) of 0.

`O=P1(N(CCCl)CCCl)NCCCO1` (stereo not drawn) [CTX, cyclophosphamide, reference compound] was tested, and the “Body weight (without tumor) D1” value [2] was 21.8 g, the “Body weight (without tumor) D8” value [2] was 26.8 g and the “Tumor weight on Day 8” value [2] was 0.60 ± 0.18 g. For the same compound, the TGI ([2]; tumor weight, Day 8) was 68.8* %, the “Body weight (without tumor) at D8” value ([3]; 30 mg/kg I.V., D1-7) was 21.22 g and the TGI ([3]; 30 mg/kg I.V., D1-7) was 79.00%. For the same compound, the Tumor weight ([3]; 30 mg/kg I.V., D1-7) was 0.43 g.

For `N.N.[Cl][Pt][Cl]` [Cisplatin, cisplatin, reference compound], the “Body weight (with tumor) D0” value [4] was 18.4 g, the “Body weight (with tumor) D18” value [4] was 16.0 g and the “RTV at D18” value [4] was 2.85 ± 1.52. The “Tumor volume D0” value [4] was 127 ± 24 mm^3, the “Tumor volume D18” value [4] was 366 ± 201 mm^3 and the T/C ([4]; D18) was 34.9* %. The “Body weight (with tumor) D0” value [5] was 16.7 g, the “Body weight (with tumor) D18” value [5] was 15.3 g and the “RTV at D18” value [5] was 8.89 ± 5.39. The “Tumor volume D0” value [5] was 110 ± 12 mm^3, the “Tumor volume D18” value [5] was 944 ± 536 mm^3 and the T/C ([5]; D18) was 33.7* %.

With `COc1cccc2c1C(=O)c1c(O)c3c(c(O)c1C2=O)C[C@@](O)(C(C)=O)C[C@@H]3O[C@H]1C[C@H](N)[C@H](O)[C@H](C)O1` [Daunorubicin, daunorubicin, reference compound] the T/C (MV-4-11 cells [6]; D11) was 38%, the TGI (MV-4-11 cells [6]; D11) was 62% and the “Tumor volume D0” value (MV-4-11 cells [6]; in mm³) was 152.9. The “Tumor volume D11” value (MV-4-11 cells [6]; in mm³) was 1167.3.

In the case of `Nc1ccn([C@@H]2O[C@H](CO)[C@@H](O)C2(F)F)c(=O)n1` [Gemcitabine, gemcitabine], the “Body weight (without tumor) at D8” value ([3]; 10 mg/kg I.V., D1) is reported as 22.31 g, the TGI ([3]; 10 mg/kg I.V., D1) is reported as 57.51% and the Tumor weight ([3]; 10 mg/kg I.V., D1) is reported as 0.86 g. The “Body weight (without tumor) at D8” value ([3]; 20 mg/kg IV, D1) was 22.35 g, the TGI ([3]; 20 mg/kg IV, D1) was 81.53% and the Tumor weight ([3]; 20 mg/kg IV, D1) was 0.38 g.

For `O=C(c1cc(Cc2n[nH]c(=O)c3ccccc23)ccc1F)N1CCN(C(=O)C2CC2)CC1` [Olaparib, olaparib, reference compound], the “Cell Death Rate/% 1” value (H69; 48 hours, Table 10) was 6%, the “Cell Death Rate/% 2” value (H69; 48 hours, Table 10) was 6.25% and the “Cell Death Rate/% 3” value (H69; 48 hours, Table 10) was 6.54%. The “Cell Death Rate/% mean” value (H69; 48 hours, Table 10) was 6.26%, the “Cell Death Rate/% 1” value (H526; 48 hours, Table 10) was 5.25% and the “Cell Death Rate/% 2” value (H526; 48 hours, Table 10) was 4.92%. The “Cell Death Rate/% 3” value (H526; 48 hours, Table 10) was 5.13%, the “Cell Death Rate/% mean” value (H526; 48 hours, Table 10) was 5.10% and the “Cell Death Rate/% 1” value (H446; 48 hours, Table 10) was 12.01%. For the same compound, the “Cell Death Rate/% 2” value (H446; 48 hours, Table 10) was 12.55%, the “Cell Death Rate/% 3” value (H446; 48 hours, Table 10) was 12.24% and the “Cell Death Rate/% mean” value (H446; 48 hours, Table 10) was 12.27%.

With `Nc1nc2[nH]cc(CCc3ccc(C(=O)N[C@@H](CCC(=O)O)C(=O)O)cc3)c2c(=O)[nH]1` [Pemetrexed disodium, pemetrexed disodium, reference compound] the “Body weight (without tumor) D0” value [7] was 24.0 g, the “Body weight (without tumor) D14” value [7] was 15.3 g and the “RTV at D14” value [7] was 9.14 ± 2.86. The “Tumor volume D0” value [7] was 138 ± 33 mm^3, the “Tumor volume D14” value [7] was 1209 ± 244 mm^3 and the T/C ([7]; D14) was 43.3* %.

`CNCc1ccc(-c2[nH]c3cc(F)cc4c3c2CCNC4=O)cc1` [Rucaparib, rucaparib, reference compound] was tested, and the “Cell Death Rate/% 1” value (H69; Example 10, Table 11) was 7.51%, the “Cell Death Rate/% 2” value (H69; Example 10, Table 11) was 7.3% and the “Cell Death Rate/% 3” value (H69; Example 10, Table 11) was 8.11%. For the same compound, the “Cell Death Rate/% mean” value (H69; Example 10, Table 11) was 7.64%, the “Cell Death Rate/% 1” value (H526; Example 10, Table 11) was 6.73% and the “Cell Death Rate/% 2” value (H526; Example 10, Table 11) was 6.57%. The “Cell Death Rate/% 3” value (H526; Example 10, Table 11) was 6.19%, the “Cell Death Rate/% mean” value (H526; Example 10, Table 11) was 6.50% and the “Cell Death Rate/% 1” value (H446; Example 10, Table 11) was 14%. For the same compound, the “Cell Death Rate/% 2” value (H446; Example 10, Table 11) was 13.79%, the “Cell Death Rate/% 3” value (H446; Example 10, Table 11) was 14.48% and the “Cell Death Rate/% mean” value (H446; Example 10, Table 11) was 14.09%.

Reference: patent publication US20230087844A1, “USE OF N2-QUINCLINE OR ISOQUINOLINE SUBSTITUTED PURINE DERIVATIVES IN CANCER TREATMENT” (SHANGHAI HUAYU BIOTECHNOLOGY CO., LTD., priority 2020, published 2023)
